Like-named read-outs stand apart in the source and are kept apart here.
How the values were obtained:
α-amylase = assay: α-Amylase inhibition (anti-diabetic); type: biochemical; settings: equal concentrations (1000 µg/mL); mean ± SE
α-glucosidase = assay: α-Glucosidase inhibition (anti-diabetic); type: biochemical; settings: equal concentrations (1000 µg/mL); mean ± SE
[1] = target: acetylcholinesterase (AChE) (Homo sapiens, UniProt P22303); assay: biochemical; settings: same concentration (1000 µg/mL); mean ± SE
Chain of acetylcholinesterase (AChE) (P22303 32-614, species assumed): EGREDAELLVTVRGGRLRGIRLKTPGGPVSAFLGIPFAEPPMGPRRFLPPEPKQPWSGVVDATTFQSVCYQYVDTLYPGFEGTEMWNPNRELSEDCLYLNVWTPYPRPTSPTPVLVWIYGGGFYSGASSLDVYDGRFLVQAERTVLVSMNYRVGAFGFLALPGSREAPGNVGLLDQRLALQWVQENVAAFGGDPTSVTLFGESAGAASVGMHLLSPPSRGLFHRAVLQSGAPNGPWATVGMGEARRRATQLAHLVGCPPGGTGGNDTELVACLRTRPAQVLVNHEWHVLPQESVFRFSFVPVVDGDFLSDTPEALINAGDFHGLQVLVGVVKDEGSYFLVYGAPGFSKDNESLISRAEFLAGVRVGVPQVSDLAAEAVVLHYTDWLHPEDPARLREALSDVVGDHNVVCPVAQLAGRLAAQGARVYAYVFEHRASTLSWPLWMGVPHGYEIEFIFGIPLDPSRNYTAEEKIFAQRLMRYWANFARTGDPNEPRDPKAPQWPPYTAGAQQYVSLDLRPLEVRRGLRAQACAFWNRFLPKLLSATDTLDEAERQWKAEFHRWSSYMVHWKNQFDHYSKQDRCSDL

[2] = target: bovine serum albumin (BSA) (Bos taurus, UniProt P02769); settings: equal concentrations (1000 µg/mL); mean ± SE
Chain of bovine serum albumin (BSA) (P02769 25-607): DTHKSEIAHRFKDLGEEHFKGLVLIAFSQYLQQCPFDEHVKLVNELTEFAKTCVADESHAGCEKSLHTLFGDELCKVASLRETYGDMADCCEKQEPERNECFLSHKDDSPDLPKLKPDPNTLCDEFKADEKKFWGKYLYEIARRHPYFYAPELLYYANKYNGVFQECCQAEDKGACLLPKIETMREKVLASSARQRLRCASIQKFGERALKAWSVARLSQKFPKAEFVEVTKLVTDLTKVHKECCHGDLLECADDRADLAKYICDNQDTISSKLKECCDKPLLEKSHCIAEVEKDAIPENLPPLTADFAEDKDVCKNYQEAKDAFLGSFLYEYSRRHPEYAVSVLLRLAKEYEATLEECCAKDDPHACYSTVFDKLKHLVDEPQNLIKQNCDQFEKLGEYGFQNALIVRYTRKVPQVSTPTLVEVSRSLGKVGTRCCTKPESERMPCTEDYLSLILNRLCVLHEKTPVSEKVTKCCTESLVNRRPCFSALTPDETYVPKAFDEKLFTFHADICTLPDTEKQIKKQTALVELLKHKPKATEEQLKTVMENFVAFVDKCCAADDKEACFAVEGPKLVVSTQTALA

[3] = tested on: proteinase enzyme (trypsin); assay: Proteinase enzyme inhibition (anti-inflammatory); type: biochemical; settings: equal concentrations (1000 µg/mL); mean ± SE
[4] = tested on: human colon cancer (Caco-2) cell line; assay: cells; type: cell-based; settings: for IC50: Homo sapiens, read-out: Cytotoxic activity IC50, Colon (Caco-2)
[5] = Cytotoxic activity, MTT assay, normal lung (WI-38); type: cell-based; settings: human
caspase-3 [6] = assay: Caspase-3 ELISA in treated A549 cells; type: cell-based, human; settings: DMSO control 85.92 ± 0.12
Bcl-2 [7] = assay: Bcl-2 ELISA in treated A549 cells; type: cell-based, human; settings: DMSO control 9.83 ± 0.05
caspase-3 [8] = assay: Caspase-3 ELISA in treated Caco-2 cells; type: cell-based, human; settings: DMSO control 97.06 ± 0.14
Bcl-2 [9] = assay: Bcl-2 ELISA in treated Caco-2 cells; type: cell-based, human; settings: DMSO control 7.99 ± 0.08
[10] = Iron-reducing power (IRP); settings: equal concentrations (1000 µg/mL); mean ± SE, three replicates
Method: (§1) All in vitro biological activities were assessed in the tested compounds at equal concentrations (1000 µg/mL). All assays were carried out in triplicate.
In vitro biological activities
(§2) The total antioxidant capacity (TAC) was determined by analyzing the green phosphate/Mo5+ complex at a wavelength (λ) of 695 nm, following the procedure described by Prieto
(§3) et al. Samples (at each concentration) were mixed with a reagent solution containing 0.3 N sulfuric
(§4) acid, 28 mM sodium phosphate, and 4 mM ammonium molybdate. Methanol (80%) was used in place
(§5) of the sample for the blank. The tubes were sealed and incubated in a boiling water bath for 90
(§6) minutes. After cooling to room temperature, the absorbance was measured at 695 nm against the
(§7) blank. Ascorbic acid was used at the same concentrations as a standard. The antioxidant capacity was
(§8) expressed as mg gallic acid equivalent per gram weight.
(§9) The iron reducing power was determined as µg/mL using the method proposed by Oyaizu
(§10) In brief, 1ml of the tested sample (at each concentration) was combined with 1mL of 200mM
(§11) sodium phosphate buffer (pH 6.6) and 1mL of 1% potassium ferricyanide. The mixture was then
(§12) incubated at 50°C for 20 minutes, followed by the addition of 1mL of trichloroacetic acid (10%). After
(§13) centrifugation at 2000rpm for 10 minutes, the upper layer solution (2.5 mL) was mixed with 2.5 mL of double deionized water and 1mL of fresh ferric chloride (0.1%). The absorbance was measured at
(§14) 700nm against a blank prepared without the sample. Ascorbic acid was used at the same
(§15) concentrations as a standard. A high absorbance at 700nm indicates a higher reducing power in the
(§16) The 1,1-Diphenyl-2-picryl-hydrazyl (DPPH) radical scavenging activities were evaluated using the method described by Rahman et al. An antioxidant substance capable of donating a
(§17) hydrogen atom to a solution containing DPPH- can reduce the stable free radical, causing the solution
(§18) to change color from violet to pale yellow. The remaining DPPH- radical was quantified by
(§19) nm using a spectroscopic method. Two milliliters of a DPPH solution (100 µM) in ethanol were mixed
(§20) with 2 mL of the sample (at each concentration). The reaction mixture for each concentration was
(§21) thoroughly vortexed and then incubated in the dark at room temperature for 30 minutes. The
(§22) absorbance was then measured spectrophotometrically at 518 nm against a blank (ethanol). For the
(§23) control, 2 mL of ethanol was added instead of the sample and run simultaneously with the test.
(§24) Ascorbic acid was used at the same concentrations as a positive control. Percent inhibition of the
(§25) DPPH free radical was calculated. The median inhibitory concentration (IC 50) for each tested
(§26) The procedure for the 2,2'-azinobis-(3-ethylbenzothiazoline-6-sulfonic acid) (ABTS) assay
(§27) potassium persulfate solution (2.4 mM). The working solution was prepared by mixing the two stock
(§28) solutions in equal quantities and allowing them to react at room temperature in a dark place for 14
(§29) hours. The solution was then diluted by mixing 1 mL of ABTS solution with 60 mL of methanol to
(§30) was prepared for each assay. The tested samples (at each concentration) were allowed to react with 1
(§31) mL of the ABTS solution, and the absorbance was taken at 734 nm after 7 minutes using a
(§32) spectrophotometer. The ABTS scavenging capacities of the samples were compared with that of
(§33) ascorbic acid (at the same concentrations).

[11] = ABTS radical scavenging assay; settings: equal concentrations (1000 µg/mL); mean ± SE
Method: as §1
In vitro biological activities
as §2, §3, §4, §5, §6, §7, §8, §9, §10, §11, §12, §13, §14, §15, §16, §17, §18, §19, §20, §21, §22, §23, §24, §25, §26, §27, §28, §29, §30, §31, §32, §33

[12] = DPPH radical-scavenging activity; settings: read-out: DPPH (IC50); mean ± SE, three replicates
Method: In vitro biological activities
as §16, §17, §18, §19, §20, §21, §22, §23, §24, §25

[13] = tested on: human lung cancer (A549) cell line; assay: Cytotoxic activity, MTT assay, lung (A549); settings: for Viability %, A549, 1st concentration: Conc.: 5a 13.45, 5d 12.64, 5e 12.29, 5f 11.81, 7a 12.72, 7f 11.24, DOX 11.50; for Viability %, A549, 2nd concentration: Conc.: 5a 26.91, 5d 25.27, 5e 24.58, 5f 23.63, 7a 25.43, 7f 22.48, DOX 23.00; for Viability %, A549, 3rd concentration: Conc.: 5a 53.81, 5d 50.55, 5e 49.15, 5f 47.26, 7a 50.86, 7f 44.96, DOX 46.00; for Viability %, A549, 4th concentration: Conc.: 5a 107.63, 5d 101.09, 5e 98.31, 5f 94.51, 7a 101.72, 7f 89.93, DOX 91.99; for Viability %, A549, 5th concentration: Conc.: 5a 215.26, 5d 202.19, 5e 196.61, 5f 189.03, 7a 203.44, 7f 179.85, DOX 183.99; for IC50: Homo sapiens, A549, 48 h, read-out: Cytotoxic activity IC50, Lung (A549)
Method: (§34) It will be assayed against human lung cancer (A549) and colon (Caco-2) cell line in
(§35) comparison with normal lung (WI-38) cell line using 3-(4,5-dimethythiazol-2-yl)-2,5-diphenyl
(§36) tetrazolium bromide (MTT) assay by determining the optical density (OD) at 570 nm according to the
(§37) The cells were dispensed in a 96-well sterile microplate (3
(§38) µL of each compound or doxorubicin (positive control, in DMSO) for 48 h in a serum free medium
(§39) prior to the MTT assay. Subsequently, the media were carefully removed, and 40 µL of MTT (2.5
(§40) mg/mL) was added to each well and then incubated for an additional 4 h. Purple formazan dye
(§41) crystals were solubilized by the addition of 200 µL of DMSO. The absorbance was measured at 570 nm using a SpectraMax Paradigm Multi-Mode microplate reader. The relative cell viability was
(§42) experiments were conducted in triplicate. Percent of the cell-growth inhibition (%) and the IC 50 was
(§43) calculated using IC 50 calculation software. The concentrations used for calculating the IC 50 depend on

[14] = Total antioxidant capacity (TAC), phosphomolybdenum method; settings: equal concentrations (1000 µg/mL); mean ± SE, three replicates
Method: as §1
In vitro biological activities
as §2, §3, §4, §5, §6, §7, §8, §9, §10, §11, §12, §13, §14, §15, §16, §17, §18, §19, §20, §21, §22, §23, §24, §25, §26, §27, §28, §29, §30, §31, §32, §33

[15] = tested on: human lung cancer (A549) cell line; settings: 48 h
Method: as §34, §35, §36, §37, §38, §39, §40, §41, §42, §43

[16] = Conc.: 5a 13.45, 5d 12.64, 5e 12.29, 5f 11.81, 7a 12.72, 7f 11.24, DOX 11.50
[17] = Conc.: 5a 26.91, 5d 25.27, 5e 24.58, 5f 23.63, 7a 25.43, 7f 22.48, DOX 23.00
[18] = Conc.: 5a 53.81, 5d 50.55, 5e 49.15, 5f 47.26, 7a 50.86, 7f 44.96, DOX 46.00
[19] = Conc.: 5a 107.63, 5d 101.09, 5e 98.31, 5f 94.51, 7a 101.72, 7f 89.93, DOX 91.99
[20] = Conc.: 5a 215.26, 5d 202.19, 5e 196.61, 5f 189.03, 7a 203.44, 7f 179.85, DOX 183.99
[21] = IC50 on normal cells (WI-38)/IC50 on Caco-2
[22] = WI-38 normal lung cells, Conc. as printed: 5a 53.81, 5d 50.55, 5e 49.15, 5f 47.26, 7a 50.86, 7f 44.96, DOX 46.00, read-out: Viability %, WI-38, 3rd concentration
[23] = WI-38 normal lung cells, Conc. as printed: 5a 107.63, 5d 101.09, 5e 98.31, 5f 94.51, 7a 101.72, 7f 89.93, DOX 91.99, read-out: Viability %, WI-38, 4th concentration
[24] = WI-38 normal lung cells, Conc.: 5a 13.45, 5d 12.64, 5e 12.29, 5f 11.81, 7a 12.72, 7f 11.24, DOX 11.50, read-out: Viability %, WI-38, 1st concentration
[25] = WI-38 normal lung cells, Conc.: 5a 26.91, 5d 25.27, 5e 24.58, 5f 23.63, 7a 25.43, 7f 22.48, DOX 23.00, read-out: Viability %, WI-38, 2nd concentration
[26] = WI-38 normal lung cells, Conc.: 5a 215.26, 5d 202.19, 5e 196.61, 5f 189.03, 7a 203.44, 7f 179.85, DOX 183.99, read-out: Viability %, WI-38, 5th concentration
[27] = WI-38 normal lung cells, 48 h, MTT, mean ± SE, read-out: Cytotoxic activity IC50, Normal Lung (WI-38)

SMILES	Inhibition (%) α-Amylase (α-amylase) [%]	Inhibition (%) α-Glucosidase (α-glucosidase) [%]	inhibition at 1000 µg/mL [1] [%]	Inhibition (%) Protein Denaturation [2] [%]	Inhibition (%) Proteinase [3] [%]	Viability %, Caco-2, 1st concentration [4, 16] [%]	Viability %, Caco-2, 2nd concentration [4, 17] [%]	Viability %, Caco-2, 3rd concentration [4, 18] [%]	Viability %, Caco-2, 4th concentration [4, 19] [%]	Viability %, Caco-2, 5th concentration [4, 20] [%]	IC50 ([4]; Caco-2, 48 h, MTT, mean ± SE) [µM]	Therapeutic Index (TI), Colon (Caco-2) [4, 21]	viability at 48 h [5, 22] [%]	viability at 48 h [5, 23] [%]	viability at 48 h [5, 24] [%]	viability at 48 h [5, 25] [%]	viability at 48 h [5, 26] [%]	Caspase-3 level, Lung (A549) (caspase-3 [6]) [pg/mL]	Bcl-2 level, Lung (A549) (Bcl-2 [7]) [ng/mL]	IC50 [13] [µM]	also measured
COc1ccc(Nc2n[nH]c(/N=C/c3ccc(N4CCCCC4)cc3)c2C(=O)Nc2ccccc2)cc1 [5d]	32.37 ± 0.05	27.84 ± 0.05	62 ± 0.04	27.79 ± 0.03	24.17 ± 0.03	70.71	51.15	40.54	26.77	23.43	62.33 ± 0.14	11.73	82.7	76.8	98.7	90.7	62.7	300.73 ± 0.42	2.81 ± 0.01	48.61 ± 0.14	Inhibition (%) Acetylcholinesterase [1]: 62.11 ± 0.04%; IC50 at 48 h [5, 27]: 732 ± 10.5 µM; Caspase-3 level, Colon (Caco-2) (caspase-3 [8]): 242.65 ± 0.36 pg/mL; Bcl-2 level, Colon (Caco-2) (Bcl-2 [9]): 3.20 ± 0.03 ng/mL; Iron-Reducing Power (IRP) [10]: 35.51 ± 0.07 µg/mL; ABTS (%) inhibition [11]: 78.18 ± 0.05%; IC50 [12]: 23.98 ± 0.01 µM; Viability %, A549, 1st concentration [13]: 90.46%; Viability %, A549, 2nd concentration [13]: 79.41%; Viability %, A549, 3rd concentration [13]: 48.01%; Viability %, A549, 4th concentration [13]: 36.58%; Viability %, A549, 5th concentration [13]: 18.10%; Total Antioxidant Capacity (TAC) [14]: 54.13 ± 0.20 mg Gallic Acid/g
COc1cccc2c1C(=O)c1c(O)c3c(c(O)c1C2=O)C[C@@](O)(C(=O)CO)C[C@@H]3O[C@H]1C[C@H](N)[C@H](O)[C@H](C)O1 [Doxorubicin, reference compound]																		330.80 ± 0.46	2.55 ± 0.01	36.45 ± 0.16	Therapeutic Index (TI), Colon (Caco-2) ([4]; Caco-2): 5.55; IC50 ([4]; Caco-2, 48 h): 54.94 ± 0.16 µM; Viability %, Caco-2, 1st concentration ([4]; human, Caco-2, 48 h): 72.32%; Viability %, Caco-2, 2nd concentration ([4]; human, Caco-2, 48 h): 50.77%; Viability %, Caco-2, 3rd concentration ([4]; human, Caco-2, 48 h): 41.86%; Viability %, Caco-2, 4th concentration ([4]; human, Caco-2, 48 h): 23.02%; Viability %, Caco-2, 5th concentration ([4]; human, Caco-2, 48 h): 20.05%; IC50 at 48 h [5]: 305 ± 4.72 µM; viability at 48 h ([5]; Viability %, WI-38, 1st concentration): 77.5%; viability at 48 h ([5]; Viability %, WI-38, 2nd concentration): 69.1%; viability at 48 h ([5]; Viability %, WI-38, 3rd concentration): 62.3%; viability at 48 h ([5]; Viability %, WI-38, 4th concentration): 52.7%; viability at 48 h ([5]; Viability %, WI-38, 5th concentration): 38.5%; Viability %, A549, 1st concentration [15]: 80.86%; Viability %, A549, 2nd concentration [15]: 69.31%; Viability %, A549, 3rd concentration [15]: 36.91%; Viability %, A549, 4th concentration [15]: 18.92%; Viability %, A549, 5th concentration [15]: 11.20%
COc1ccc(Nc2n[nH]c(N=Cc3ccc(N4CCCCC4)cc3)c2C(=O)Nc2ccc(Cl)cc2)cc1 [5f]	31.77 ± 0.05	27.33 ± 0.05	42.76 ± 0.03	27.28 ± 0.03	23.72 ± 0.03	89.43	80.91	61.88	39.72	32.34	61.98 ± 0.12	7.95	76	60.7	87.9	82	44.8	236.29 ± 0.33	3.57 ± 0.02	60.45 ± 0.12	IC50 at 48 h [5, 27]: 493 ± 9.88 µM; Caspase-3 level, Colon (Caco-2) (caspase-3 [8]): 266.92 ± 0.39 pg/mL; Bcl-2 level, Colon (Caco-2) (Bcl-2 [9]): 2.91 ± 0.03 ng/mL; Iron-Reducing Power (IRP) [10]: 34.85 ± 0.07 µg/mL; ABTS (%) inhibition [11]: 76.74 ± 0.05%; IC50 [12]: 22.83 ± 0.01 µM; Viability %, A549, 1st concentration [13]: 97.46%; Viability %, A549, 2nd concentration [13]: 87.31%; Viability %, A549, 3rd concentration [13]: 60.91%; Viability %, A549, 4th concentration [13]: 46.48%; Viability %, A549, 5th concentration [13]: 20.20%; Total Antioxidant Capacity (TAC) [14]: 53.14 ± 0.20 mg Gallic Acid/g
Cc1c(C=Nc2[nH]nc(Nc3ccccc3)c2C(=O)Nc2ccccc2)c(=O)n(-c2ccccc2)n1C [7a]	31.30 ± 0.05	26.91 ± 0.05	42.12 ± 0.03	26.87 ± 0.03	23.37 ± 0.03	70.21	50.65	40.04	26.27	22.93	42.42 ± 0.18	17.35	82.7	76.8	98.7	90.7	62.7	322.21 ± 0.45	2.62 ± 0.01	49.4 ± 0.18	IC50 at 48 h [5, 27]: 736 ± 7.95 µM; Caspase-3 level, Colon (Caco-2) (caspase-3 [8]): 363.98 ± 0.54 pg/mL; Bcl-2 level, Colon (Caco-2) (Bcl-2 [9]): 2.13 ± 0.02 ng/mL; Iron-Reducing Power (IRP) [10]: 34.33 ± 0.07 µg/mL; ABTS (%) inhibition [11]: 75.59 ± 0.05%; IC50 [12]: 24.94 ± 0.01 µM; Viability %, A549, 1st concentration [13]: 90.96%; Viability %, A549, 2nd concentration [13]: 79.91%; Viability %, A549, 3rd concentration [13]: 48.51%; Viability %, A549, 4th concentration [13]: 37.08%; Viability %, A549, 5th concentration [13]: 18.60%; Total Antioxidant Capacity (TAC) [14]: 52.34 ± 0.19 mg Gallic Acid/g

— PMC11125359 (Pharmaceuticals, 2024)
